Like-named read-outs stand apart in the source and are kept apart here.
Columns and labels:
NFκB = NFκB luciferase reporter assay in TNF-α stimulated A549 cells (E-selectin promoter); type: cell-based; details: % inhibition or IC50 in μM; for IC50: Homo sapiens
Procedure: A549 cells were stably transfected with an E-selectin promoter containing three NFκB binding sites driving luciferase expression. For the assay, 5×10^4 cells were incubated in 96 well round bottom plates overnight in 100 μL of 10% FBS/RPMI medium at 37° C. in a 5% CO2 atmosphere. The following morning the medium was removed and 90 μL of a 1% DMSO solution of test compound solution was added and the plates incubated for 1 hour. 10 μL of TNF-α was added at its EC50 (normally 6 ng/mL FAC) to each well and the plate incubated for 5 hours. 100 μL of luciferase buffer was added, and after 10 minutes luminescence was read on a Wallac Victor 1420 Multilabel Counter. The data obtained from the Wallac Victor was converted into % inhibition data or IC50 measured in μM.

A549 cells = assay: Inhibition of TNF-α induced apoptosis in A549 cells (crystal violet); type: cell-based; details: Homo sapiens, percent inhibition at 20 μM or IC50 in μM
Procedure: The protocol used for determining inhibition of apoptosis in A549 cells was adopted from a system previously described (K. Last-Barney et al., J. of Immunology 141:527-530, 1988). Briefly, 10^5 cells in 200 μL 10% FBS/RPMI antibiotic containing culture medium were plated into 96 well round bottom culture plates and allowed to adhere for 6 hours at 37° C. in a 5% CO2 atmosphere. The media was removed and 100 μL of RPMI+1 μg/mL actinomycin-D was added to each well, followed by 90 μL of test compound solution in 1% DMSO. This was incubated for 1 hour 10 AL TNF-α was added at its EC50 (normally 1 ng/mL FAC) and the plates incubated for 18 hours. The media was aspirated from the plates and 100 μL of 0.5% crystal violet in 20% methanol was added. After 10 minutes the plates were rinsed with water to remove excess stain, air dried, and read on a Spectramax at a wavelength of 590 nm. The data obtained from the Spectramax was converted into percent inhibition data at a concentration of 20 μM or IC50 measured in μM.

CXCR2 = target: T1, CXCR2 (Homo sapiens, UniProt P25025); assay: CXCR2 radioligand binding assay with 125I labeled IL-8; details: human recombinant CHO cells; for CXCR2 2 inh.: percent inhibition or IC50; for IC50: percent inhibition or IC50, read-out: CXCR2 2 inh.
T1 construct: host or cells: CHO cells
T1 sequence (P25025 1-360): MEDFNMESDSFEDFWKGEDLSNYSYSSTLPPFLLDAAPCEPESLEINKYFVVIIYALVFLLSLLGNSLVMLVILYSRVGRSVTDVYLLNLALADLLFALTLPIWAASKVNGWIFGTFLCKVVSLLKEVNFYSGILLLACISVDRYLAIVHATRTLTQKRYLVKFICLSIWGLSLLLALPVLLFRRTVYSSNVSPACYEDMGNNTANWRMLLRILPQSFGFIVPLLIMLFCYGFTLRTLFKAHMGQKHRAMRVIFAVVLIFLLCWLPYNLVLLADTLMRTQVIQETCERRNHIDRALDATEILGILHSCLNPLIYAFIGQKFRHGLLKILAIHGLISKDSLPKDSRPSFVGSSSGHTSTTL
Text: (§1) This assay is a radioligand binding assay in human recombinant CHO cells with ^125I labeled IL-8 as the ligand. The assay procedure is described in Ahuja, S. K.; Murphy, P. M;.

CXCR1 = target: T2, CXCR1 (Homo sapiens, UniProt P25024); assay: CXCR1 radioligand binding assay with 125I labeled IL-8; details: human recombinant CHO cells; for CXCR1 inh.: percent inhibition or IC50; for IC50: percent inhibition or IC50, read-out: CXCR1 inh.
T2 construct: host or cells: CHO cells
T2 sequence (P25024 1-350): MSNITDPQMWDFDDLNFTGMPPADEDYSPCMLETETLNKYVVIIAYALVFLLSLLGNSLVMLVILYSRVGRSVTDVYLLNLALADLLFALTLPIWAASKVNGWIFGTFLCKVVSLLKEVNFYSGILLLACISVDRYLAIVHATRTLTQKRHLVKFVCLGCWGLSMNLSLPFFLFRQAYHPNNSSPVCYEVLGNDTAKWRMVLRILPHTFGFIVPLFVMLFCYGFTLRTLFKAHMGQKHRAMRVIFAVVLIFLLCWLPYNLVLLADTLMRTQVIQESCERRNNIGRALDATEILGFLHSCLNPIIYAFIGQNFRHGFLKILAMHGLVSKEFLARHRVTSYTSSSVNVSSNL
Text: as §1

[1] = TNF-α stimulated A549 cells, E-selectin promoter luciferase, given as class symbols, read-out: NFκB inh
[2] = inhibition of TNF-α induced apoptosis in A549 cells, given as class symbols, read-out: Apopt inh
[3] = A549 cells with NFκB luciferase reporter, TNF-α at its EC50, 5 hours

Compound | IC50 (NFκB; [1]) | IC50 (A549 cells; [2]) | other results
CCCOC(=O)[C@H]1[C@H](C(=O)OCCC(C)(C)C)C2CC(=O)[C@H]1c1cc(O)ccc12 [Example 107] | 10 to 50 µM | – | –
CCCOC(=O)[C@H]1[C@H](C(=O)OCC[Si](C)(C)C)C2CC(=CC(=O)OCC)[C@H]1c1cc(O)ccc12 [Example 98] | – | – | inhibition at 20 µM (A549 cells; [2]): 6 to 64%
CCCOC(=O)[C@H]1[C@H](C(=O)OCC[Si](C)(C)C)C2C/C(=N\NS(=O)(=O)c3ccccc3)[C@H]1c1cc(O)ccc12 [Example 58] | – | 10 to 50 µM | –
CCCOC(=O)C1C(C(=O)OCC[Si](C)(C)C)C2C/C(=N\Oc3ccccc3)[C@H]1c1cc(O)ccc12 (stereo partly drawn) [Example 116] | – | – | CXCR2 2 inh. (CXCR2): * (refers to percent inhibition from 10-36%); IC50 (NFκB; A549 cells with NFκB luciferase reporter, TNF-α at its EC50, 5 hours, read-out: NFkB inh.): 10 to 50 µM; IC50 (A549 cells; A549 cells, actinomycin-D + TNF-α at its EC50, 18 hours, read-out: Apopt. Inh.): < 10 µM; CXCR1 inh. (CXCR1): * (refers to percent inhibition from 10-36%)
CCCOC(=O)[C@H]1[C@H](C(=O)OCC[Si](C)(C)C)C2C/C(=N/OCC(=O)N3CCN(c4ccccc4)CC3)[C@H]1c1cc(O)ccc12 [Example 74] | 10 to 50 µM | – | –
COc1ccc(COC(=O)[C@H]2[C@H](C(=O)OCC[Si](C)(C)C)C3CC(O)[C@H]2c2cc(O)ccc23)c(OC)c1 (stereo partly drawn) [Example 96] | – | < 10 µM | –
CCCOC(=O)[C@H]1[C@H](C(=O)OCC[Si](C)(C)C)C2CC(N(Cc3ccc(C)cc3)C(C)=O)[C@H]1c1cc(O)ccc12 (stereo partly drawn) [Example 91] | 10 to 50 µM | – | –
CCCOC(=O)[C@@H]1C2C(=O)CC(c3ccc(O)cc32)[C@H]1C(=O)OCCC12CC3CC(CC(C3)C1)C2 (stereo partly drawn) [Example 108] | 10 to 50 µM | – | –
CCCOC(=O)[C@H]1[C@H](C(=O)OCC[Si](C)(C)C)C2CC(O)(CO)[C@H]1c1cc(O)ccc12 (stereo partly drawn) [Example 102] | – | – | inhibition at 20 µM (A549 cells; [2]): 6 to 64%
CCCOC(=O)[C@H]1[C@H](C(=O)OCC[Si](C)(C)C)C2CC(O)[C@H]1c1cc(O)ccc12 (stereo partly drawn) [Example 82] | 10 to 50 µM | < 10 µM | –
CCCOC(=O)[C@H]1[C@H](C(=O)OCC[Si](C)(C)C)C2C/C(=N\OCc3nnsc3Cl)[C@H]1c1cc(O)ccc12 (racemic) [Example 71, 11-(5-Chloro-[1,2,3]thiadiazol-4-ylmethoxyimino)-4-hydroxy-tricyclo[6.2.2.0^2,7]dodeca-2(7),3,5-triene-9,10-dicarboxylic acid 10-propyl ester 9-(2-trimethylsilanyl-ethyl) ester] | 10 to 50 µM | < 10 µM | –
CCCOC(=O)[C@H]1[C@H](C(=O)OCC[Si](C)(C)C)C2CC(N(C)C(C)=O)[C@H]1c1cc(O)ccc12 (stereo partly drawn) [Example 94] | 10 to 50 µM | – | –
CCCOC(=O)C1C(C(=O)OCC[Si](C)(C)C)C2C[C@H](Nc3ccccc3)[C@H]1c1cc(O)ccc12 (stereo partly drawn) [Example 114] | – | – | CXCR2 2 inh. (CXCR2): * (refers to percent inhibition from 10-36%); NFkB inh. (NFκB; [3]): * (refers to percent inhibition from 6% to 64%)
CCCOC(=O)[C@H]1[C@H](C(=O)OCC[Si](C)(C)C)C2CC(C)(O)[C@H]1c1cc(O)ccc12 (stereo partly drawn) [Example 99] | 10 to 50 µM | – | –
COc1ccc(COC(=O)[C@H]2[C@H](C(=O)OCC[Si](C)(C)C)C3CC(O)[C@H]2c2cc(O)ccc23)c(OC)c1 (stereo partly drawn) [Example 95] | – | – | inhibition at 20 µM (A549 cells; [2]): 6 to 64%
CCCOC(=O)[C@H]1[C@H](C(=O)OCC[Si](C)(C)C)C2C/C(=N\NC(=S)NC)[C@H]1c1cc(O)ccc12 [Example 81] | – | < 10 µM | –
CCCOC(=O)[C@@H]1C2C(=O)CC(c3ccc(O)cc32)[C@H]1C(=O)OCCC[Si](C)(C)C (stereo partly drawn) [Example 109] | 10 to 50 µM | – | –

Compound | IC50 (NFκB; [1]) | IC50 (A549 cells; [2]) | other results
CCCOC(=O)C1C(C(=O)OCC[Si](C)(C)C)C2C[C@@H](Nc3ccccc3)[C@H]1c1cc(O)ccc12 (stereo partly drawn) [Example 115] | – | – | CXCR2 2 inh. (CXCR2): * (refers to percent inhibition from 10-36%); NFkB inh. (NFκB; [3]): * (refers to percent inhibition from 6% to 64%); CXCR1 inh. (CXCR1): * (refers to percent inhibition from 10-36%)
C=C1CC2c3ccc(O)cc3[C@H]1[C@@H](C(=O)OCCC)[C@@H]2C(=O)OCC[Si](C)(C)C [Example 101] | – | < 10 µM | –
CCCOC(=O)[C@H]1[C@H](C(=O)OCC[Si](C)(C)C)C2C/C(=N\NCCO)[C@H]1c1cc(O)ccc12 [Example 56] | – | < 10 µM | –
CCCOC(=O)[C@H]1[C@H](C(=O)OCC[Si](C)(C)C)C2CC(NCc3ccc(C)cc3)[C@H]1c1cc(O)ccc12 (stereo partly drawn) [Example 84] | 10 to 50 µM | < 10 µM | –
CCCOC(=O)[C@H]1[C@H](C(=O)OCC[Si](C)(C)C)C2CC(=O)[C@H]1c1ccccc12 [Example 52] | 10 to 50 µM | – | inhibition at 20 µM (A549 cells; [2]): 6 to 64%
CCCOC(=O)C1C(C(=O)OCC[Si](C)(C)C)C2C/C(=N\Nc3ccccc3Br)[C@H]1c1cc(O)ccc12 (stereo partly drawn) [Example 112] | – | – | IC50 (CXCR2): < 10 µM; NFkB inh. (NFκB; [3]): * (refers to percent inhibition from 6% to 64%); IC50 (CXCR1): 10 to 50 µM
CCCOC(=O)[C@H]1[C@H](C(=O)OCC[Si](C)(C)C)C2C/C(=N\OCC(=O)N3CCN(c4ccccc4)CC3)[C@H]1c1cc(O)ccc12 (stereo in doubt) [Example 73] | 10 to 50 µM | – | –
CCCOC(=O)[C@H]1[C@H](C(=O)OCC[Si](C)(C)C)C2CC(NC)[C@H]1c1cc(O)ccc12 (stereo partly drawn) [Example 86] | 10 to 50 µM | – | –
C=CCOC(=O)c1ccc(COc2ccc3c(c2)[C@@H]2C(=O)CC3[C@@H](C(=O)N(C)CC(=O)NCc3c(OC)cc(OC)cc3OC)[C@H]2C(=O)OCC[Si](C)(C)C)cc1 [Example 110] | – | – | inhibition at 20 µM (A549 cells; [2]): 6 to 64%
CCCNC1CC2c3ccc(O)cc3[C@H]1[C@@H](C(=O)OCCC)[C@@H]2C(=O)OCC[Si](C)(C)C (stereo partly drawn) [Example 85] | 10 to 50 µM | – | –
CCCOC(=O)[C@H]1[C@H](C(=O)OCC[Si](C)(C)C)C2CC(N(C)C(C)=O)[C@H]1c1cc(OC(C)=O)ccc12 (stereo partly drawn) [Example 92] | 10 to 50 µM | – | –
CCCOC(=O)[C@H]1[C@H](C(=O)OCCS(=O)(=O)c2ccc(C)cc2)C2CC(=O)[C@H]1c1cc(O)ccc12 [Example 106] | 10 to 50 µM | – | –
CCCOC(=O)[C@H]1[C@H](C(=O)OCC[Si](C)(C)C)C2C/C(=N\OCc3cccc(F)c3)[C@H]1c1cc(O)ccc12 (racemic) [Example 72, 11-(3-Fluoro-benzyloxyimino)-4-hydroxy-tricyclo[6.2.2.0^2,7]dodeca-2(7),3,5-triene-9,10-dicarboxylic acid 10-propyl ester 9-(2-trimethylsilanyl-ethyl) ester] | – | < 10 µM | –
CCCOC(=O)[C@H]1[C@H](C(=O)OCC[Si](C)(C)C)C2CC3(OCCO3)[C@H]1c1cc(O)ccc12 [Example 97] | 10 to 50 µM | – | inhibition at 20 µM (A549 cells; [2]): 6 to 64%
C[Si](C)(C)CCOC(=O)C1C2CC(=O)[C@@H](c3cc(O)ccc32)C1C(=O)OCC[Si](C)(C)C (stereo partly drawn) [Example 113] | – | – | IC50 (CXCR2): 10 to 50 µM; NFkB inh. (NFκB; [3]): * (refers to percent inhibition from 6% to 64%); IC50 (CXCR1): 10 to 50 µM
CCCCCN(CCCCC)C(=O)[C@@H]1[C@H](C(=O)N(C)CC(=O)NCc2c(OC)cc(OC)cc2OC)C2CC(=O)[C@H]1c1cc(OCc3ccc(C(=O)N4CCC[C@H]4C(=O)N(C)C)cc3)ccc12 [Example 5] | – | 10 to 50 µM | –
